Measured values published in US11076595B2, “1-(n,n-disubstituted carbamoyl) 4-(substituted sulfonyl)triazolin-5-one derivative, 4-(n,n-disubstituted carbamoyl) 1-(substituted sulfonyl)triazolin-5-one derivative, and herbicide containing said derivative as active ingredient” (HOKKO CHEMICAL INDUSTRY CO., LTD., priority 2017, dated 2021).

What was measured:
Assay type in all cases: in vivo
[1] = tested on: Lindernia pyxidaria; assay: Test Example 1: herbicidal effect test by soil treatment in paddy field; conditions: 120 g/10a, paddy soil treatment just after sowing, 14 days after treatment
Outline: (§1)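 Weed suppression (%) was calculated at 14 days from mean plant dry weight relative to untreated pots, with duplicate pots per rate. The compound went into the flood water as a diluted emulsifiable concentrate (120 g a.i./10 are) immediately after sowing seeds 0–1 cm deep. Pots held ~3 cm water in a glasshouse.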

[2] = tested on: Monochoria vaginalis; assay: as above; conditions: 120 g/10a, paddy soil treatment just after sowing, 14 days after treatment
Outline: as §1

[3] = tested on: Echinochloa crus-galli; assay: as above; conditions: 120 g/10a, paddy soil treatment just after sowing, 14 days after treatment
Outline: as §1

[4] = tested on: Scirpus juncoides; assay: as above; conditions: 120 g/10a, paddy soil treatment just after sowing, 14 days after treatment
Outline: as §1

[5] = tested on: Chenopodium album; assay: Test Example 3: herbicidal effect test by soil treatment in upland field; conditions: upland field soil treatment 1 day after sowing; 120 g/10a; evaluated 14 days after treatment
Protocol: (§2) This test was performed with two replications per one formulation concentration plot, and 14 days after the formulation treatments, the weed suppression rate (%) was determined according to the following equation (Math. 1). Weed suppression rate (%)=(1−an average dry weight (g) of plants in treated plots/an average dry weight (g) of plants in untreated plots)×100 [Math. 1]
(§3) A pot having a size of 36 cm^2 was filled with field soil (alluvial soil) and after uniformly mixing the soil of the surface layer of 1 cm with 20 grains of each weed seed of crabgrass, Echinochloa crus-galli, Chenopodium album and Amaranthus viridis, the surface layer was pressed lightly. One day after the sowing, an emulsifiable concentrate prepared according to Formulation Example 5 by using the compound shown in Table 7 below was diluted with water, and the water-diluted formulation was sprayed on the soil surface at a ratio of 100 liter per 10 are. The application rate of the active ingredient, by conversion, corresponded to 120 g per 10 are. Fourteen days after the formulation treatment, the herbicidal effect was evaluated by the same criteria as in Test Example 1.

[6] = tested on: crabgrass; assay: as above; conditions: upland field soil treatment 1 day after sowing; 120 g/10a; evaluated 14 days after treatment
Protocol: as §2, §3

[7] = tested on: Amaranthus viridis; assay: as above; conditions: upland field soil treatment 1 day after sowing; 120 g/10a; evaluated 14 days after treatment
Protocol: as §2, §3

[8] = tested on: Echinochloa crus-galli; assay: as above; conditions: upland field soil treatment 1 day after sowing; 120 g/10a; evaluated 14 days after treatment
Protocol: as §2, §3

[9] = tested on: Lindernia pyxidaria; assay: Test Example 2: herbicidal effect test by treatment during growing period in paddy field; conditions: treatment 7 days after sowing, 120 g/10a, evaluated 14 days after treatment
Outline: (§4)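 Read-out is weed suppression (%), 1 − mean dry weight treated/untreated ×100, taken 14 days after treatment with duplicate plots. Treatment: water-diluted emulsifiable concentrate added dropwise to flooded paddy-soil pots 7 days post-sowing at 120 g active ingredient per 10 are.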

[10] = tested on: Monochoria vaginalis; assay: as above; conditions: treatment 7 days after sowing, 120 g/10a, evaluated 14 days after treatment
Outline: as §4

[11] = tested on: Echinochloa crus-galli; assay: as above; conditions: treatment 7 days after sowing, 120 g/10a, evaluated 14 days after treatment
Outline: as §4

[12] = tested on: Scirpus juncoides; assay: as above; conditions: treatment 7 days after sowing, 120 g/10a, evaluated 14 days after treatment
Outline: as §4

[13] = tested on: Chenopodium album; assay: Test Example 4: herbicidal effect test by foliage treatment in upland field; conditions: upland field foliage treatment 7 days after sowing; 120 g/10a; evaluated 14 days after treatment
Protocol: as §2
as §3, with “Seven days” for “One day”, “8” for “7”

[14] = tested on: crabgrass; assay: as above; conditions: upland field foliage treatment 7 days after sowing; 120 g/10a; evaluated 14 days after treatment
Protocol: as §2
as §3, with “Seven days” for “One day”, “8” for “7”

[15] = tested on: Amaranthus viridis; assay: as above; conditions: upland field foliage treatment 7 days after sowing; 120 g/10a; evaluated 14 days after treatment
Protocol: as §2
as §3, with “Seven days” for “One day”, “8” for “7”

[16] = tested on: Echinochloa crus-galli; assay: as above; conditions: upland field foliage treatment 7 days after sowing; 120 g/10a; evaluated 14 days after treatment
Protocol: as §2
as §3, with “Seven days” for “One day”, “8” for “7”

Structure (SMILES)	weed suppression rate, Lindemia pyxidaria [1] [%]	weed suppression rate, Monochoria vaginalis [2] [%]	weed suppression rate, Echinochloa crus-galli [3] [%]	weed suppression rate, Scirpus juncoides [4] [%]	herbicidal effect (weed suppression rate), Chenopodium album [5] [%]	herbicidal effect (weed suppression rate), Crabgrass [6] [%]	herbicidal effect (weed suppression rate), Amaranthus viridis [7] [%]	herbicidal effect (weed suppression rate), Echinochloa crus-galli [8] [%]	weed suppression rate, Lindemia pyxidaria [9] [%]	weed suppression rate, Monochoria vaginalis [10] [%]	weed suppression rate, Echinochloa crus-galli [11] [%]	weed suppression rate, Scirpus juncoides [12] [%]	herbicidal effect (weed suppression rate), Chenopodium album [13] [%]	herbicidal effect (weed suppression rate), Crabgrass [14] [%]	herbicidal effect (weed suppression rate), Amaranthus viridis [15] [%]	herbicidal effect (weed suppression rate), Echinochloa crus-galli [16] [%]
Cc1ccc(N(C(=O)n2ncn(S(=O)(=O)C3CC3)c2=O)C(C)C)c(F)c1 [Compound 1-221]	90	90	90	90	80	90	90	80	80	80	90	90	–	–	–	–
CC(C)N(C(=O)n1ncn(S(=O)(=O)C2CC2)c1=O)c1ccc(C(F)(F)F)cc1Cl [Compound 1-229]	80	80	90	90	80	90	90	80	80	80	90	90	–	–	–	–
CC(C)N(C(=O)n1ncn(S(=O)(=O)C(C)C)c1=O)c1ccc(F)nc1 [Compound 1-242]	–	–	–	–	80	90	90	80	–	–	–	–	–	–	–	–
CC(C)N(C(=O)n1ncn(S(=O)(=O)C2CCCCC2)c1=O)c1ccc(F)cc1F [Compound 1-306]	100	100	100	100	80	90	90	80	100	100	100	90	–	–	–	–
CC(C)N(C(=O)n1ncn(S(=O)(=O)C2CCCCC2)c1=O)c1ccc(F)c(F)c1F [Compound 1-309]	100	100	100	100	–	–	–	–	80	100	100	100	80	100	0	100
CC(C)N(C(=O)n1ncn(S(=O)(=O)C2CCCCC2)c1=O)c1c(F)c(F)cc(F)c1F [Compound 1-311]	100	100	100	100	–	–	–	–	80	100	100	90	60	100	0	100
Cc1cc(F)ccc1N(C(=O)n1ncn(S(=O)(=O)C2CCCCC2)c1=O)C(C)C [Compound 1-319]	80	80	100	100	–	–	–	–	80	90	100	80	70	80	70	70
CC(C)N(C(=O)n1ncn(S(=O)(=O)N(C)C)c1=O)c1ccc(Cl)nc1Cl [Compound 1-1136]	90	90	100	90	–	–	–	–	90	80	100	90	80	90	90	80
CCN(CC)S(=O)(=O)n1cnn(C(=O)N(c2ccc(F)cc2F)C(C)C)c1=O [Compound 1-1140]	80	80	90	90	80	90	90	80	–	–	–	–	–	–	–	–
